In patent US20140128260A1, “Compositions and Methods for Post Emergent Weed Control with Dim Herbicides and Gibberellic Acid” (Valent U.S.A. Corporation, priority 2012, published 2014):

Assays:
[1] = system: Glyphosate resistant corn; experiment: Effect of clethodim and GA3 treatments on planted glyphosate resistant corn (Example 2); format: in vivo
Experimental: A further study was performed in order to confirm the effect clethodim and GA3 treatments have on corn. Glyphosate resistant corn was planted with a conventional four-row planter. Treatments were applied 28 days after the plantings.
Effect of Clethodim and GA3 Treatments on corn (% control).

Johnsongrass = experiment: Effect of clethodim and GA3 treatments on Johnsongrass, field plots (Example 1); format: in vivo, sorghum halepense
Experimental: In order to determine the efficacy of combinations of clethodim and GA3, numerous treatments were applied to plots in an area with abundant Johnsongrass growth.
The percent control of Johnsongrass plants was evaluated at 7, 18 and 28 days following the treatment. Effect of Clethodim and GA3 Treatments on Johnsongrass (% control).”
The percent control refers to the amount of dead tissue on the plants present. It would be dead plants plus desiccated foliage on partially killed plants.

Compound | Corn % control ([1]; 6 DAT, clethodim 32 gm ai/a, with NIS and AMS) | Corn % control ([1]; 13 DAT, clethodim 32 gm ai/a, with NIS and AMS) | Corn % control ([1]; 29 DAT, clethodim 32 gm ai/a, with NIS and AMS) | Activity of clethodim on corn in the presence of GA3 ([1]; in vivo) | Johnsongrass % control (Johnsongrass; 7 DAT, clethodim 32 x g ai/a (9 fl oz/a of Selectmax), with 0.25% v/v NIS and 2.5 lb/acre AMS) | Johnsongrass % control (Johnsongrass; 18 DAT, clethodim 32 x g ai/a (9 fl oz/a of Selectmax), with 0.25% v/v NIS and 2.5 lb/acre AMS) | Johnsongrass % control (Johnsongrass; 28 DAT, clethodim 32 x g ai/a (9 fl oz/a of Selectmax), with 0.25% v/v NIS and 2.5 lb/acre AMS) | Corn % control ([1]; 6 DAT, GA3 3 g ai/a, with 0.25% v/v NIS and 2.5 lb/acre AMS) | Corn % control ([1]; 6 DAT, GA3 10 g ai/a, with NIS and AMS) | Corn % control ([1]; 13 DAT, GA3 3 g ai/a, with NIS and AMS) | Corn % control ([1]; 13 DAT, GA3 10 g ai/a, with NIS and AMS) | Corn % control ([1]; 29 DAT, GA3 3 g ai/a, with NIS and AMS) | Corn % control ([1]; 29 DAT, GA3 10 g ai/a, with NIS and AMS) | Johnsongrass % control (Johnsongrass; 7 DAT, GA3 5 g ai/a (5 fl oz/a of ProGibb 4%)) | Johnsongrass % control (Johnsongrass; 7 DAT, GA3 25 g ai/a (25 fl oz/a of ProGibb 4%)) | Johnsongrass % control (Johnsongrass; 18 DAT, GA3 5 g ai/a (5 fl oz/a of ProGibb 4%)) | Johnsongrass % control (Johnsongrass; 18 DAT, GA3 25 g ai/a (25 fl oz/a of ProGibb 4%)) | Johnsongrass % control (Johnsongrass; 28 DAT, GA3 5 g ai/a (5 fl oz/a of ProGibb 4%)) | Johnsongrass % control (Johnsongrass; 28 DAT, GA3 25 g ai/a (25 fl oz/a of ProGibb 4%)) | Effect of GA3 on the activity of clethodim on Johnsongrass (Johnsongrass; seven days following treatment)
CCSC(C)CC1CC(=O)C(C(CC)=NOC/C=C/Cl)=C(O)C1 (centres unmarked) [Clethodim, 2-[1-[[[(2E)-3-chloro-2-propen-1-yl]oxy]imino]propyl]-5-[2-(ethylthio)propyl]-3-hydroxy-2-cyclohexen-1-one] | 48.33% | 88.33% | 96.00% | significantly increased | 37.21% | 85.66% | 89.26% |  |  |  |  |  |  |  |  |  |  |  |  | 
C=C1C[C@]23C[C@@]1(O)CC[C@H]2[C@@]12C=C[C@H](O)[C@@](C)(C(=O)O1)[C@H]2[C@@H]3C(=O)O [GA3, Gibberellic acid] |  |  |  |  |  |  |  | 0% | 0% | 0% | 0% | 0% | 0% | 0% | 0% | 0.32% | 0% | 0% | 0% | more than doubles the activity of clethodim
